Data reported in patent publication US12433853B2, “Rationally designed lawsone derivatives as antimicrobials against multidrug-resistant Staphylococcus aureus” (KENT STATE UNIVERSITY, priority 2019, dated 2025).
Converted amounts (≈) assume the structure as drawn.

Key:
MRSA^oflR = experiment: MIC against ofloxacin-resistant mutant MRSA from day 56 passage (cross-resistance); type: cell-based; conditions: Staphylococcus aureus
Protocol: (§1) Typical clinical antibiotics can readily produce genetic mutants when used to treat the same bacterial over and over again, which is the major cause of antibiotic drug resistance in many pathogenic bacteria these days and of emergence of superbugs. To test if 6c can develop drug resistance in either MSSA (ATCC 29213) or MRSA (ATCC BAA-44), we performed sequential passaging studies with 6c. Briefly, the MIC values for S. aureus strains to be tested were determined first. Then, cells grown in the initial MIC dose of the compound or antibiotics from the previous passage were once again harvested after 24-h incubation period and assayed for a new MIC. The process was repeated for 56 passages against MRSA (ATCC BAA-44).

[1] = system: vancomycin-intermediate and daptomycin non-susceptible strain of MRSA (ATCC 700699); experiment: MIC by broth microdilution (CLSI) against vancomycin-intermediate, daptomycin non-susceptible MRSA; type: cell-based; conditions: Staphylococcus aureus, ATCC 700699 / MRSA / VISA
Protocol: (§2) The MICs were determined by the broth microdilution method by following Clinical and Laboratory Standards Institute (CLSI) guidelines
(§3) Spectroscopic characterization and X-ray structural determination unequivocally confirmed the identities of all the five new compositions of matter, that is compounds denoted as 6a through 6e.

MRSA^vanR = experiment: MIC against vancomycin-resistant mutant MRSA from day 56 passage (cross-resistance); type: cell-based; conditions: Staphylococcus aureus
Protocol: as §1

MRSA (ATCC BAA-44) [2] = experiment: Sequential passaging drug resistance development study in MRSA; type: cell-based, Staphylococcus aureus; conditions: for MIC: Staphylococcus aureus, read-out: initial MIC
Excerpt: FIG. 4 is a chart showing the drug resistance development of 6c in comparison with vancomycin and ofloxacin in MRSA (ATCC BAA-44);
as §1

MRSA (ATCC BAA-44) [3] = experiment: Checkerboard assay of 6c with oxacillin; type: cell-based, Staphylococcus aureus; conditions: 6c combined with oxacillin
Protocol: MIC of oxacillin in the presence of 0.6 μg/mL of 6c. ^bMIC of 6c in the presence of 4 μg/mL of oxacillin. The MICs were determined by the broth microdilution method by following Clinical and Laboratory Standards Institute (CLSI) guidelines.
The checkerboard assay was performed in a 96-well plate using the established method. Specifically, the antibiotic oxacillin was 2-fold serially diluted along the row-axis and 6c was 2-fold serially diluted along the column-axis to create a matrix in which each well consists of a combination of both at different concentrations. Each well was inoculated with MRSA (ATCC BAA-44) to yield approximately 5×10^5 CFU/mL in a 100-μL final volume, incubated for 20 h at 37° C. and examined for visibility to determine the MIC. Dividing the MIC of 6c in the presence of antibiotic by the MIC of 6c alone was used to calculate the fractional inhibitory concentration (FIC) of 6c. Similarly, dividing the MIC of antibiotic in the presence of 6c by the MIC of the antibiotic alone was used to calculate the fractional inhibitory concentration (FIC) of the antibiotic. The FIC index was calculated by the summation of both FIC values. The FIC index was interpreted as synergistic, additive, or antagonistic for values of x≤0.5, 0.5<x<4, or ≥4, respectively.

MSSA (ATCC 29213) = experiment: Sequential passaging drug resistance development study in MSSA; type: cell-based, Staphylococcus aureus; conditions: MSSA ATCC 29213, sequential passaging, vs vancomycin and ciprofloxacin
Excerpt: FIG. 5 is a chart showing the drug resistance development of 6c in comparison with vancomycin and ciprofloxacin in MSSA (ATCC SA 29213);
as §1

[4] = system: biofilm formed by MRSA (ATCC BAA-44); experiment: Biofilm inhibition assay; type: cell-based, Staphylococcus aureus; conditions: 24 h
Protocol: FIG. 6 is a chart showing the effect of 6c on the inhibition of biofilm formed by MRSA (ATCC BAA-44). Percentage of viable bacteria in the biofilm formed by MRSA in response to the treatment of Lawsone-derivatives (6a, 6b, 6c, 6d, and 6e) at varying concentrations (0-30 μM) (mean±s·d, n=3 independent experiments);
By observing the antibacterial efficacy of 6c against planktonic phase of MRSA, we next examined whether 6c could be effective against biofilm phase of MRSA. For this, the biofilm inhibition assay was performed using the established procedure. […] For the quantification of biofilm mass, the solutions in the plate with biofilm were replaced with a 100 μL solution containing 0.5% of crystal violet and incubated for 30 min at room temperature in the dark. […] The absorbance of the biofilm was measured at 595 nm using a microplate reader and the results were expressed as percentage changes with respect to the control (without compounds). For the quantification of the number of viable bacteria in the biofilm, the biofilms were gently destroyed and plated on TSA after serial dilutions of each suspension. The number of viable bacteria in the sample was obtained using agar plate counting method as described above and results were expressed as percentage changes with respect to the control.

MRSA = experiment: Non-lethal systemic infection model, i.p. treatment; type: in vivo, mice (C57BL/6); conditions: single dose 15 mg/kg i.p. at day 1 post-infection, CFU at day 2; p<0.05
Excerpt: FIG. 8 is a chart showing the effect of the treatment of 6c (via i.p injection, […]) on the bacterial burden in lung (b), spleen (c), kidney (d), liver (e), and peritoneal (f) tissues of mice (C57BL/6 mice, male, 8-12 weeks old) infected by MRSA (mean±s·d, n=8 mice per group). The CFU counts from homogenized tissue collected from each mouse was run in duplicates. *: p<0.05, **: p<0.01, and ***: p<0.001.
(§4) To validate the in vivo antibacterial efficacy, we conducted the studies of treating the infections of local wound infection as well as non-lethal systemic infection induced by MRSA. For local infection, a full-thickness, circular wound was generated on the dorsal surface of each mouse (C57BL/6) using a 6-mm sterile biopsy punch after the mouse was anesthetized, followed by inoculating with 1×10^6 CFU MRSA (ATCC BAA-44) in the wounded skin at day 0 and then a defined amount of 6c or vancomycin (80 μg in 40 μL sterile saline per wound) was topically applied once to the wounds of mice at day 1 post-infection. The CFU number of viable bacteria in the wound was quantified at day 2 post-infection. […] The CFU number of viable bacteria was counted at day 2 post-infection from major organs including lung, kidney, spleen, liver, and peritoneal tissues. […]

[5] = system: MRSA (ATCC BAA-44 and ATCC BAA-1717); experiment: microbe, parasite or virus in culture; type: cell-based, Staphylococcus aureus
Protocol: as §2, §3

[6] = system: MSSA (ATCC 29213 and ATCC 6538); experiment: MIC by broth microdilution (CLSI) against MSSA; type: cell-based, Staphylococcus aureus; conditions: two strains of MSSA
Protocol: as §2, §3

MRSA (ATCC BAA-44) [7] = experiment: Local wound infection model, topical treatment; type: in vivo, mice (C57BL/6); conditions: single topical dose 80 μg per wound at day 1 post-infection, CFU at day 2
Protocol: FIG. 7 is a chart showing the effect of the treatment of 6c or vancomycin (via topical treatment, single dose at 80 μg per wound) on the bacterial burden in wounds of mice (C57BL/6 mice, male, 8-12 weeks old) infected by MRSA at day 2 post-wounding (mean±s·d, n=3 mice per group). The CFU counts from homogenized tissue collected from each mouse was run in duplicates. *: p<0.05 vs control;
as §4

[8] = at 56 passages (end of measurements)

Work on `CCCCc1ccc(CC2=C(O)C(=O)c3ccccc3C2=O)cc1` [6c, 2-[(4-butylphenyl)methyl]-3-hydroxy-[1,4]naphthoquinone] yielded an MIC (MRSA^oflR) of 1.25 µg/mL (≈ 3.9 µM), an MIC [1] of 1.25 to 2.5 µg/mL (≈ 3.9 to 7.8 µM) and an MIC (MRSA^vanR) of 5 µg/mL (≈ 15.6 µM). The MIC (MRSA (ATCC BAA-44) [2]) was 1.25 µg/mL (≈ 3.9 µM), the “increase of MIC” value (MRSA (ATCC BAA-44) [2]; [8]) was 4 fold and the “change of MIC” value (MRSA (ATCC BAA-44) [2]; up to 33 passages) was “largely unchanged”. For the same compound, the FIC index interpretation (MRSA (ATCC BAA-44) [3]) was “synergistic (x≤0.5)”, the FIC (MRSA (ATCC BAA-44) [3]; MRSA ATCC BAA-44, 20 h) was 0.31 and the drug resistance profile (MSSA (ATCC 29213)) was “improved drug resistance profile”. For the same compound, the “suppression of biofilm formation” value ([4]; dose of 1×MIC (5 μM or 1.5 μg/mL)) was 40%, the “suppression of biofilm formation” value ([4]; dose of 3×MIC (15 μM or 4.5 μg/mL)) was 90% and the “bacterial burdens in kidney, liver, and peritoneal tissues vs vehicle control” value (MRSA) was “significantly reduced”. The MIC ([5]; Staphylococcus aureus) was 1.25 to 2.5 µg/mL (≈ 3.9 to 7.8 µM), the “antimicrobial activity (MIC) compared with ofloxacin and ciprofloxacin” value [6] was “comparable” and the “reduction of MRSA numbers (CFU) in the wound vs control” value (MRSA (ATCC BAA-44) [7]) was 60%.
Work on `CCCCCCCCCC(=O)N[C@@H](Cc1c[nH]c2ccccc12)C(=O)N[C@H](CC(N)=O)C(=O)N[C@@H](CC(=O)O)C(=O)N[C@@H]1C(=O)NCC(=O)N[C@@H](CCCN)C(=O)N[C@@H](CC(=O)O)C(=O)N[C@H](C)C(=O)N[C@@H](CC(=O)O)C(=O)NCC(=O)N[C@H](CO)C(=O)N[C@@H]([C@H](C)CC(=O)O)C(=O)N[C@@H](CC(=O)c2ccccc2N)C(=O)O[C@@H]1C` [daptomycin] yielded an MIC ([5]; MRSA ATCC BAA-44 and ATCC BAA-1717, broth microdilution) of about 1 µg/mL (≈ 0.617 µM).
In the case of `CC1COc2c(N3CCN(C)CC3)c(F)cc3c(=O)c(C(=O)O)cn1c23` (stereo not shown) [ofloxacin], the MIC (MRSA (ATCC BAA-44) [2]) is reported as 8 µg/mL (≈ 22.1 µM), the “increase of MIC” value (MRSA (ATCC BAA-44) [2]; after 5 passages) is reported as 4 fold and the “increase of MIC” value (MRSA (ATCC BAA-44) [2]; at 35 passages) is reported as 32 fold. For the same compound, the “increase of MIC” value (MRSA (ATCC BAA-44) [2]; [8]) was 64 fold.
In the case of `CN[C@H](CC(C)C)C(=O)N[C@H]1C(=O)N[C@@H](CC(N)=O)C(=O)N[C@H]2C(=O)N[C@H]3C(=O)N[C@H](C(=O)N[C@H](C(=O)O)c4cc(O)cc(O)c4-c4cc3ccc4O)[C@H](O)c3ccc(c(Cl)c3)Oc3cc2cc(c3O[C@@H]2O[C@H](CO)[C@@H](O)[C@H](O)[C@H]2O[C@H]2C[C@](C)(N)[C@H](O)[C@H](C)O2)Oc2ccc(cc2Cl)[C@H]1O` [vancomycin], the MIC (MRSA (ATCC BAA-44) [2]) is reported as 1 µg/mL (≈ 0.69 µM), the “increase of MIC” value (MRSA (ATCC BAA-44) [2]; [8]) is reported as 128 fold and the “increase of MIC” value (MRSA (ATCC BAA-44) [2]; by 51 passages) is reported as 4 fold. For the same compound, the MIC ([5]; Staphylococcus aureus) was about 1 µg/mL (≈ 0.69 µM) and the “reduction of MRSA numbers (CFU) in the wound vs control” value (MRSA (ATCC BAA-44) [7]) was about 50%.
